According to ChEMBL document CHEMBL4304783, “Discovery of a Novel Selective Dual Peroxisome Proliferator-Activated Receptor α/δ Agonist for the Treatment of Primary Biliary Cirrhosis” (ACS Med Chem Lett, 2019):
Active and inactive are the calls of the source. The calls are words filed in the database; no cut-off is given here.

Columns and labels:
[1] = target: T1, Peroxisome proliferator-activated receptor alpha (Homo sapiens, UniProt Q07869); assay: Agonist activity at PPARalpha (unknown origin) incubated for 3 to 16 hrs by pathhunter nuclear hormone receptor assay
T1 sequence (Q07869 whole entry): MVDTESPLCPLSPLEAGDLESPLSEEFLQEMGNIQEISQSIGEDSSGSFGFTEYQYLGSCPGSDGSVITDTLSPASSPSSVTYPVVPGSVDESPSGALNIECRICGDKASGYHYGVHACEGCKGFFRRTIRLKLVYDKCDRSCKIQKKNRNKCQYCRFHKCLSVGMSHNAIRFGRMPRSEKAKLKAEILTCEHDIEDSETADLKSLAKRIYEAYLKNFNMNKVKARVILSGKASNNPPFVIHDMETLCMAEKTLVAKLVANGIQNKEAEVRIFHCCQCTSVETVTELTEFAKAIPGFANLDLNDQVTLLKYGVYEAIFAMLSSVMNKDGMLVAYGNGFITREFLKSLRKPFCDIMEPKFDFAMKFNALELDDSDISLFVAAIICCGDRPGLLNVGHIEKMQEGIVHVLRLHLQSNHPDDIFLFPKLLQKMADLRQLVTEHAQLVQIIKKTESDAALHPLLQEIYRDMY

[2] = target: T2, Peroxisome proliferator-activated receptor delta (Homo sapiens, UniProt Q03181); assay: Agonist activity at PPARbeta (unknown origin) incubated for 3 to 16 hrs by pathhunter nuclear hormone receptor assay
T2 sequence (Q03181 whole entry): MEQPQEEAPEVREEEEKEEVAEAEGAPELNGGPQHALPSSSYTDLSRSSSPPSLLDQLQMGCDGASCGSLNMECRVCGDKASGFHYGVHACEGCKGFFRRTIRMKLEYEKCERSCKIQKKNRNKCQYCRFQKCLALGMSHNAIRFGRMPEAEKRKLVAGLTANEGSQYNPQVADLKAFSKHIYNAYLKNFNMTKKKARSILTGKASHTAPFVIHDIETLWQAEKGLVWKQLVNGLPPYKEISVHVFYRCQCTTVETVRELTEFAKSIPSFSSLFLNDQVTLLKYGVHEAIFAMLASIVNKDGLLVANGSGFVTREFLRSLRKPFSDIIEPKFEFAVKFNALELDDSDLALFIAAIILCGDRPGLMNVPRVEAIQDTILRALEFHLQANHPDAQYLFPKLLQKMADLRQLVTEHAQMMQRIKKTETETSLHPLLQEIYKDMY

[3] = target: T3, Peroxisome proliferator-activated receptor gamma (Homo sapiens, UniProt P37231); assay: Agonist activity at PPARgamma (unknown origin) incubated for 3 to 16 hrs by pathhunter nuclear hormone receptor assay
T3 sequence (P37231 whole entry): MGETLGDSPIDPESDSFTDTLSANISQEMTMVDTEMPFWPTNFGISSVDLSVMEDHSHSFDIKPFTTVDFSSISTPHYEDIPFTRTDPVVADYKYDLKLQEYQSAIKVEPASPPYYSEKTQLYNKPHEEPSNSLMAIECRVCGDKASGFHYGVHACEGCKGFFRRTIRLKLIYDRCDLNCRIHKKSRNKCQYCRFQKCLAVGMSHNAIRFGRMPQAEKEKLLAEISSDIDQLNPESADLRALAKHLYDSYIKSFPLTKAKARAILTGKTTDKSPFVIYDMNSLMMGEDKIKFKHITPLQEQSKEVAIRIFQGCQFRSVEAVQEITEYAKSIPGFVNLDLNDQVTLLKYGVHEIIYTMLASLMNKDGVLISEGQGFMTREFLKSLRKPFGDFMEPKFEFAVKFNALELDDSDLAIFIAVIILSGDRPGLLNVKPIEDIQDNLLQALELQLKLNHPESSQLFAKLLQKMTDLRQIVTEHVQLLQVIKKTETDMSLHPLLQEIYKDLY

[4] = target: T4, Peroxisome proliferator-activated receptor alpha (Homo sapiens) (UniProt Q07869); assay: Agonist activity at PPARalpha (unknown origin) incubated for 3 to 16 hrs by pathhunter nuclear hormone receptor assay relative to GW7647; parameters: concentration or dose not given beside the values
T4 sequence (whole entry): T1 sequence (Q07869 whole entry)

[5] = target: T5, Peroxisome proliferator-activated receptor delta (Homo sapiens) (UniProt Q03181); assay: Agonist activity at PPARbeta (unknown origin) incubated for 3 to 16 hrs by pathhunter nuclear hormone receptor assay relative to L-165,041
T5 sequence (whole entry): T2 sequence (Q03181 whole entry)

[6] = target: T6, Peroxisome proliferator-activated receptor gamma (Homo sapiens) (UniProt P37231); assay: Agonist activity at PPARgamma (unknown origin) incubated for 3 to 16 hrs by pathhunter nuclear hormone receptor assay relative to Troglitazone
T6 sequence (whole entry): T3 sequence (P37231 whole entry)

[7] = organism: Homo sapiens; assay: Selectivity index, ratio of EC50 of PPARgamma (unknown origin) to EC50 of PPARalpha (unknown origin)
[8] = target: PPAR delta/gamma (Homo sapiens) (UniProt P37231+Q03181); assay: Selectivity index, ratio of EC50 of PPARgamma (unknown origin) to EC50 of PPARdelta (unknown origin); format: protein assay
[9] = target: T4, Peroxisome proliferator-activated receptor alpha (Homo sapiens); assay: Potency index, ratio of EC50 of GFT505 to ratio of EC50 of compound for agonist activity at PPARalpha (unknown origin) incubated for 3 to 16 hrs by pathhunter nuclear hormone receptor assay
[10] = tested on: Rattus norvegicus; assay: Hepatoprotective activity in Sprague-Dawley rat assessed as reduction in ANIT-stimulated total bilirubin level at 30 mg/kg, ig administered for 8 days by biochemical analysis; format: functional, organism-based
[11] = tested on: Rattus norvegicus; assay: Hepatoprotective activity in Sprague-Dawley rat assessed as reduction in ANIT-stimulated inflammatory score at 30 mg/kg, ig administered for 8 days by hematoxylin and eosin staining based mopho-metric analysis; format: functional, organism-based
[12] = tested on: Rattus norvegicus; assay: Hepatoprotective activity in Sprague-Dawley rat assessed as reduction in ANIT-stimulated fibrosis area at 30 mg/kg, ig administered for 8 days by hematoxylin and eosin staining based mopho-metric analysis; format: functional, organism-based
[13] = tested on: Rattus norvegicus; assay: Hepatoprotective activity in Sprague-Dawley rat assessed as reduction in ANIT-stimulated total bilirubin level at 20 mg/kg, ig administered for 8 days by biochemical analysis; format: functional, organism-based
[14] = tested on: Rattus norvegicus; assay: Hepatoprotective activity in Sprague-Dawley rat assessed as reduction in ANIT-stimulated inflammatory score at 20 mg/kg, ig administered for 8 days by hematoxylin and eosin staining based mopho-metric analysis; format: functional, organism-based
[15] = tested on: Rattus norvegicus; assay: Hepatoprotective activity in Sprague-Dawley rat assessed as reduction in ANIT-stimulated fibrosis area at 20 mg/kg, ig administered for 8 days by hematoxylin and eosin staining based mopho-metric analysis; format: functional, organism-based

`Cc1cc(CCc2cc(-c3ccc(Br)cc3)on2)cc(C)c1OC(C)(C)C(=O)O` showed an EC50 [1] of 27 nM, an EC50 [2] of 5 nM and an EC50 [3] of 457 nM. The Activity [4] was 134%, the Activity [5] was 73% and the Activity [6] was 78%. It also gave a Ratio EC50 [7] of 17, a Ratio EC50 [8] of 91 and a Ratio EC50 [9] of 8 to 28.

For `Cc1cc(-c2cc(-c3ccc(Br)cc3)on2)cc(C)c1OC(C)(C)C(=O)O`, the EC50 [1] was greater than 10000 nM and the Activity [4] was 5%.

`CSc1ccc(C(=O)/C=C/c2cc(C)c(OC(C)(C)C(=O)O)c(C)c2)cc1` [ELAFIBRANOR] gave an EC50 [1] of 225 nM, an Activity [4] of 117% and an Activity [5] of 72%. The Activity [6] was 93%, the Activity [10] was “Active” and the Activity [11] was “inactive”. For the same molecule, the Activity [12] was “inactive”.

Molecule `Cc1cc(Cc2cnoc2-c2ccc(Br)cc2)cc(C)c1OC(C)(C)C(=O)O` has an EC50 [1] of 2820 nM and an Activity [4] of 78%.

Molecule `CCCc1c(OCCCOc2ccc(OCC(=O)O)cc2)ccc(C(C)=O)c1O` has an EC50 [2] of 61 nM.

With `Cc1cc(Cc2cc(-c3ccccc3)on2)cc(C)c1OC(C)(C)C(=O)O` the EC50 [1] was 385 nM and the Activity [4] was 85%.

In the case of `Cc1cc(Cc2noc3c2CCOc2cc(Br)ccc2-3)cc(C)c1OC(C)(C)C(=O)O`, the EC50 [1] is reported as 8970 nM and the Activity [4] is reported as 50%.

`Cc1cc(Cc2onc3c2CCOc2cc(Br)ccc2-3)cc(C)c1OC(C)(C)C(=O)O` gave an EC50 [1] of 3420 nM and an Activity [4] of 85%.

`CC[C@H]1[C@@H](O)[C@@H]2[C@H](CC[C@]3(C)[C@@H]([C@H](C)CCC(=O)O)CC[C@@H]23)[C@@]2(C)CC[C@@H](O)C[C@@H]12` was tested, and the Activity [13] was “Active”, the Activity [14] was “inactive” and the Activity [15] was “inactive”.
